This is an account of results in ChEMBL document CHEMBL1139680, “2,4-Disubstituted piperidines as selective CC chemokine receptor 3 (CCR3) antagonists: synthesis and selectivity” (Bioorg Med Chem Lett, 2006).

Series [1] concerns the target Sodium-dependent dopamine transporter (Homo sapiens, UniProt Q01959). Nature of the series: Inhibition of DAT.
Series [2] addresses T1, C-C chemokine receptor type 3 (Homo sapiens, UniProt P51677).
T1 sequence (P51677 whole entry): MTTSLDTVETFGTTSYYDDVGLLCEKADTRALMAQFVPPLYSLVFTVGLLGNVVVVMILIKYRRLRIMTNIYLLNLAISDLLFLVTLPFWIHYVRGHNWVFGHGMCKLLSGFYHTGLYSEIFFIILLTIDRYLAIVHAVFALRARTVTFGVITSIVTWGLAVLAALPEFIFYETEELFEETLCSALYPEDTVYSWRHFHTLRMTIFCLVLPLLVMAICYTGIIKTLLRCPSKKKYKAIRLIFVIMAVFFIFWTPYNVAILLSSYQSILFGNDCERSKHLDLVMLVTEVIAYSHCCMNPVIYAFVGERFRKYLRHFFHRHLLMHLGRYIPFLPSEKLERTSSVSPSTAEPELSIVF
The series is described as follows: Binding affinity to CCR3.

Series [3] concerns the target Sodium-dependent serotonin transporter (Homo sapiens, UniProt P31645). The series is described as follows: Inhibition of 5HTT.
Series [4] addresses Sodium-dependent noradrenaline transporter (Homo sapiens, UniProt P23975). Nature of the series: Inhibition of NET.
For series [5], the system named is Eosinophil. The series is described as follows: Inhibition of eotaxin-induced human eosinophil chemotaxis. The format is functional, cell-based.
The subject of series [6] is Eosinophil. Nature of the series: Inhibition of eotaxin-induced calcium mobilization in eosinophil. The format is functional, cell-based. The settings on record: Homo sapiens.
A short description of series [7]: Cmax in cynomolgus monkeys after 5 mg/kg oral dose. The format is ADME, organism-based, Macaca fascicularis. The arrangement: dose 5 mg/kg, route oral. The settings on record: cynomolgus monkey, in vivo.
Series [8] in a line: Oral bioavailability in mouse at 10 mg/kg, po. The format is ADME, organism-based. The settings on record: in vivo.
Series [9] is described as follows: Clearance in mouse at 2 mg/kg, iv. The format is ADME, organism-based. On the set-up: dose 2 mg/kg, route intravenous. The settings on record: in vivo.
A short description of series [10]: Volume of distribution in mouse ar 2 mg/kg, iv. Format: ADME, organism-based. The arrangement: dose 2 mg/kg, route intravenous. The settings on record: in vivo, read-out: Vdss.
Series [11] in a line: Half life in cynomolgus monkey at 5 mg/kg, po. The arrangement: dose 5 mg/kg, route oral. The format is ADME, organism-based, Macaca fascicularis. The settings on record: in vivo.
A short description of series [12]: Volume of distribution in cynomolgus monkey at 2 mg/kg, iv. The format is ADME, organism-based, Macaca fascicularis. The arrangement: dose 2 mg/kg, route intravenous. The settings on record: in vivo, read-out: Vdss.
A short description of series [13]: Clearance in cynomolgus monkey at 2 mg/kg, iv. Format: ADME, organism-based, Macaca fascicularis. On the set-up: dose 2 mg/kg, route intravenous. The settings on record: in vivo.
Series [14] can be described thus: Half life in mouse at 10 mg/kg, po. The arrangement: dose 10 mg/kg, route oral. The settings on record: in vivo. The format is ADME, organism-based.
The nature of series [15]: Oral bioavailability in cynomolgus monkey at 5 mg/kg, po. The format is ADME, organism-based, Macaca fascicularis. The settings on record: in vivo.
A short description of series [16]: Cmax in mice after 10 mg/kg oral dose. Format: ADME, organism-based. On the set-up: dose 10 mg/kg, route oral. The settings on record: mouse, in vivo.

Chain of Sodium-dependent noradrenaline transporter (P23975 whole entry): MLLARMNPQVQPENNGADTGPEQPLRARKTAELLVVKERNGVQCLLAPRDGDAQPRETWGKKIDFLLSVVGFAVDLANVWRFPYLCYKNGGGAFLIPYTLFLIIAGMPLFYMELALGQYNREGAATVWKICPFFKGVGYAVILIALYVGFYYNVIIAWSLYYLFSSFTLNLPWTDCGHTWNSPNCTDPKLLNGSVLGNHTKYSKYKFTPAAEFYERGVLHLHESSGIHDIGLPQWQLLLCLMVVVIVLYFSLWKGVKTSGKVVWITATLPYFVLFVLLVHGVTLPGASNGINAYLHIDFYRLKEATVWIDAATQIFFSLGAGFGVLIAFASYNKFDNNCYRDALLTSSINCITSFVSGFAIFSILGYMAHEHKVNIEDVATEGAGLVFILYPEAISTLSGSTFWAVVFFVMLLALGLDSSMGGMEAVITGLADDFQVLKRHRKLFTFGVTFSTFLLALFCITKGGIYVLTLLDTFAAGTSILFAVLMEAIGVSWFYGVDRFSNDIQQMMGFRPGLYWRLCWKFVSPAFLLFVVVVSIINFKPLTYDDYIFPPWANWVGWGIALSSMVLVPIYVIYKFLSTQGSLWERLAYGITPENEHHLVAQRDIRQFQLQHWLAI
Chain of Sodium-dependent dopamine transporter (Q01959 whole entry): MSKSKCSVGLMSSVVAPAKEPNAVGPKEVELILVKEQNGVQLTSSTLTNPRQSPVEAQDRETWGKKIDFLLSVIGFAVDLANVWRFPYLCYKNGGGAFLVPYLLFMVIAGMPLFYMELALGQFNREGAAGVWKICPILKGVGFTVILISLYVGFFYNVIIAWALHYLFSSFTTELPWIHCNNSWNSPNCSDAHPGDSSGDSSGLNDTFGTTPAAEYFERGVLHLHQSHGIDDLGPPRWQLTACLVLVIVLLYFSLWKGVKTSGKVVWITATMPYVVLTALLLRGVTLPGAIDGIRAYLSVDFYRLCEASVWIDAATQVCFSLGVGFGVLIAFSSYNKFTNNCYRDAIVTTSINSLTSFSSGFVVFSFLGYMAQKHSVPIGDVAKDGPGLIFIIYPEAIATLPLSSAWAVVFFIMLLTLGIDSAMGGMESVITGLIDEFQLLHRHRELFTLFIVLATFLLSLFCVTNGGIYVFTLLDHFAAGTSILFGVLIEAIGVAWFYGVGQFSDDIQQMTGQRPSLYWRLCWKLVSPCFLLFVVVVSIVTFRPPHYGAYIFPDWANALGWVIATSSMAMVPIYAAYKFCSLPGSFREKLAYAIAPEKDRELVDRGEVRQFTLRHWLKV
Chain of Sodium-dependent serotonin transporter (P31645 whole entry): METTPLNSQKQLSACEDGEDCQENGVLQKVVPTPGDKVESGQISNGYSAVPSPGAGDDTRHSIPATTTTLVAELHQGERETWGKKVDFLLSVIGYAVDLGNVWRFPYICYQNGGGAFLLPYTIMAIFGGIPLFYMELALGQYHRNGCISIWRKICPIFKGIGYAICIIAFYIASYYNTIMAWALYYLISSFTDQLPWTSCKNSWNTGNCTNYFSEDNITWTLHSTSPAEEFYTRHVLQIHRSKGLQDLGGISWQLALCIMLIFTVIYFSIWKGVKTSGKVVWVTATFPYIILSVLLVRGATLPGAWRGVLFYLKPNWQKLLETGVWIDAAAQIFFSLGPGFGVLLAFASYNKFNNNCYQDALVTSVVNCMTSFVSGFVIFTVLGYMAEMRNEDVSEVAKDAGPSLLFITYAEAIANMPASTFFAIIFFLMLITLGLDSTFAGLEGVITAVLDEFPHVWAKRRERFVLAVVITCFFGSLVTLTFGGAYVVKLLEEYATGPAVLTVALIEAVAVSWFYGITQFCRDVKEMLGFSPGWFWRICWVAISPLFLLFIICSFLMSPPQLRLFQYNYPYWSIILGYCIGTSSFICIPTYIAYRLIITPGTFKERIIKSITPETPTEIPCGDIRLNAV

As to `CC(=O)c1cccc(NC(=O)NCCC[C@H]2C[C@H](Cc3ccc(F)cc3)CCN2C)c1`, the inhibitory constant (Ki) in series [1] worked out at 0.096 µM; in series [3] it was 0.572 µM; in series [4], 0.257 µM. The half-maximal inhibitory concentration (IC50) in series [2] is 0.0017 µM (antagonist).

In the series with Eosinophil [5], `CCCN1CC[C@@H](Cc2ccc(F)cc2)C[C@@H]1CCCNC(=O)Nc1cc(C(C)=O)cc(C(C)=O)c1` displayed a concentration giving a half-maximal response (EC50) of 0.0047 µM. The inhibition constant Ki is 0.157 µM in [1], 0.166 µM in series [3] and 1.48 µM in series [4]. For the same molecule, the results for the IC50 (with Eosinophil [6]; in series [2]) were 0.0012 µM and 0.0007 µM (antagonist), respectively.

For the molecule `N#Cc1cccc(NC(=O)NCCC[C@H]2C[C@H](Cc3ccccc3)CCN2)c1` (stereo in doubt; 5), the results for the Ki in series [1], in series [3] and in series [4] were 0.01 µM, 0.054 µM and 0.046 µM, respectively. Besides, in series [2], the IC50 is 0.644 µM (antagonist).

Take `CC(=O)c1cc(NC(=O)NCCC[C@H]2C[C@H](Cc3ccc(F)cc3)CCN2CC(N)=O)cc(C(C)=O)c1`: the inhibition constant (Ki) in series [1] was found to be 2.66 µM; in [3], 0.71 µM; in series [4], 5.01 µM. In addition, in [2], the IC50 was 0.0036 µM (antagonist).

Regarding `CC(=O)c1cccc(NC(=O)NCCC[C@H]2C[C@H](Cc3ccc(F)cc3)CCN2)c1`, the figures for the inhibition constant (Ki) in series [1], in series [3] and in series [4] were 0.219 µM, 0.018 µM and 0.233 µM, respectively. Further, the IC50 in [2] is 0.0014 µM (antagonist).

With `CC(=O)c1cc(NC(=O)NCCC[C@H]2C[C@H](Cc3ccc(F)cc3)CCN2CC(F)(F)F)cc(C(C)=O)c1`, the concentration for half-maximal inhibition (IC50) in [2] was 1.38 µM (antagonist).

On to `CCC(=O)N1CC[C@@H](Cc2ccc(F)cc2)C[C@@H]1CCCNC(=O)Nc1cc(C(C)=O)cc(C(C)=O)c1`, for which the Ki was 2.08 µM in series [1], 0.224 µM in series [3] and 9.26 µM in [4]. Also, in series [2], the 50% inhibitory concentration (IC50) is 0.0058 µM (antagonist).

Take `CC(=O)c1cccc(NC(=O)NCCC[C@H]2C[C@H](Cc3ccccc3)CCN2)c1` (racemic): the inhibitory constant (Ki) in series [1] came out at 0.032 µM; in [3], 0.042 µM; in [4], 0.039 µM. Besides, the IC50 in [2] is 0.006 µM (antagonist).

As for `CC(=O)c1cc(NC(=O)NCCC[C@H]2C[C@H](Cc3ccc(F)cc3)CCN2C(=N)N)cc(C(C)=O)c1`, the inhibition constant Ki in series [1] came out at 0.031 µM; in [3] it was 0.019 µM; in series [4], 0.388 µM. Besides, in series [2], the concentration for half-maximal inhibition (IC50) is 0.0043 µM (antagonist).

For the molecule `CC(=O)c1cccc(NC(=O)NCCC[C@H]2C[C@H](Cc3ccc(F)cc3)CCN2CC2CC2)c1`, the Ki in [1] was found to be 0.251 µM; in series [3] it was 0.117 µM; in series [4], 3.45 µM. Further, the IC50 in series [2] was 0.0025 µM (antagonist).

With `N#Cc1cccc(NC(=O)NCCC[C@H]2C[C@H](Cc3ccccc3)CCN2)c1` (stereo in doubt; 4), the Ki in series [1] came to 0.034 µM; in [3], 0.035 µM; in series [4] it was 0.037 µM. Moreover, in series [2], the IC50 was 0.013 µM (antagonist).

Regarding `CC(=O)c1cc(NC(=O)NCCC[C@H]2C[C@H](Cc3ccc(F)cc3)CCN2CC(F)F)cc(C(C)=O)c1`, the Ki in series [1] came out at 0.931 µM; in series [3], 0.328 µM; in [4] it was 1.05 µM. Besides, in series [2], the 50% inhibitory concentration (IC50) is 0.0124 µM (antagonist).

Turning to `N#Cc1cccc(NC(=O)NCCC[C@@H]2C[C@H](Cc3ccccc3)CCN2)c1` (racemic), in series [2], the half-maximal inhibitory concentration (IC50) was 0.386 µM (antagonist).

With `CC(=O)c1cc(NC(=O)NCCC[C@H]2C[C@H](Cc3ccc(F)cc3)CCN2C(C)=O)cc(C(C)=O)c1`, the EC50 with Eosinophil [5] was > 0.1 µM. In addition, the Ki in series [1] is 1.22 µM; in series [3], 5.46 µM; in [4], 1.38 µM. Further, the concentration for half-maximal inhibition (IC50) in the series with Eosinophil [6] is 0.133 µM; in series [2] it was 0.0039 µM (antagonist).

Regarding `CC(=O)c1cccc(NC(=O)NCCC[C@H]2C[C@H](Cc3ccc(F)cc3)CCN2CCO)c1`, the Ki worked out at 2.24 µM in series [1], 0.05 µM in series [3] and 1.82 µM in [4]. Also, the IC50 in [2] is 0.007 µM (antagonist).

In the case of `N#Cc1cccc(NC(=O)NCCC[C@H]2C[C@H](Cc3ccccc3)CCN2)c1` (racemic), the IC50 in series [2] was 0.022 µM (antagonist).

Turning to `CC(=O)CN1CC[C@@H](Cc2ccc(F)cc2)C[C@@H]1CCCNC(=O)Nc1cc(C(C)=O)cc(C(C)=O)c1`, the Ki in series [1] stood at 0.754 µM; in [3], 0.011 µM; in series [4] it was 0.381 µM. Moreover, in series [2], the IC50 was 0.0009 µM (antagonist).

As for `CC(=O)c1cc(NC(=O)NCCC[C@H]2C[C@H](Cc3ccc(F)cc3)CCN2)cc(C(C)=O)c1`, the inhibitory constant (Ki) is 0.119 µM in series [1], 0.0035 µM in [3] and 0.095 µM in series [4]. For the same molecule, the concentration for half-maximal inhibition (IC50) in [2] was 0.0005 µM (antagonist).

For `N#Cc1cccc(NC(=O)NCC[C@H]2C[C@H](Cc3ccccc3)CCN2)c1` (racemic), in [2], the IC50 was 0.185 µM (antagonist).

For `C=CCN1CC[C@@H](Cc2ccc(F)cc2)C[C@@H]1CCCNC(=O)Nc1cccc(C(C)=O)c1`, the inhibition constant (Ki) in series [1] was found to be 0.855 µM; in series [3], 0.217 µM; in series [4], 1.23 µM. Moreover, the IC50 in series [2] is 0.0041 µM (antagonist).

Regarding `C=CCN1CC[C@@H](Cc2ccc(F)cc2)C[C@@H]1CCCNC(=O)Nc1cc(C(C)=O)cc(C(C)=O)c1`, the figures for the Ki in series [1], in series [3] and in series [4] were 0.297 µM, 0.069 µM and 0.876 µM, respectively. Also, in [2], the concentration for half-maximal inhibition (IC50) was 0.001 µM (antagonist).

For `CC(=O)c1cc(NC(=O)NCCC[C@H]2C[C@H](Cc3ccc(F)cc3)CCN2CCF)cc(C(C)=O)c1`, the Ki was 0.651 µM in [1], 0.049 µM in [3] and 0.317 µM in series [4]. The IC50 in series [2] is 0.0023 µM (antagonist).

With `CCCN1CC[C@@H](Cc2ccc(F)cc2)C[C@@H]1CCCNC(=O)Nc1cccc(C(C)=O)c1`, the Cmax in series [7] was determined as 989 nM; in [16], 274 nM. The molecule further showed a 50% effective concentration (EC50) in the series with Eosinophil [5] of 0.019 µM. In addition, the Ki in series [1] amounted to 0.756 µM; in series [3], 0.296 µM; in [4] it was 4.17 µM. Moreover, the values for the IC50 (with Eosinophil [6]; in series [2]) were 0.026 µM and 0.002 µM (antagonist), respectively. The bioavailability came out at 36% in [8] and 18% in series [15]. In addition, the figures for the clearance in series [9] and in [13] were 177 mL/min/kg and 6.67 mL/min/kg, respectively. Also, the Vd in series [10] was found to be 8 L/kg; in [12], 3.1 L/kg. For the same molecule, the half-life was 9 h in series [11] and 1.4 h in series [14].

In the case of `N#Cc1cccc(NC(=O)NCCCC[C@H]2C[C@H](Cc3ccccc3)CCN2)c1` (racemic), the IC50 in series [2] was 0.142 µM (antagonist).

Regarding `C#CCN1CC[C@@H](Cc2ccc(F)cc2)C[C@@H]1CCCNC(=O)Nc1cc(C(C)=O)cc(C(C)=O)c1`, the Ki in [1] is 0.621 µM; in [3], 0.305 µM; in series [4] it was 0.524 µM. Also, the IC50 in series [2] was 0.0019 µM (antagonist).

With `CC(=O)c1cc(NC(=O)NCCC[C@H]2C[C@H](Cc3ccc(F)cc3)CCN2CCCO)cc(C(C)=O)c1`, the Ki is 0.609 µM in series [1], 0.212 µM in series [3] and 0.497 µM in series [4]. The IC50 in series [2] is 0.0013 µM (antagonist).

Turning to `CC(=O)c1cc(NC(=O)NCCC[C@H]2C[C@H](Cc3ccc(F)cc3)CCN2CCO)cc(C(C)=O)c1`, the results for the Ki in [1], in series [3] and in [4] were 0.451 µM, 0.04 µM and 1.39 µM, respectively. Moreover, the IC50 in series [2] was 0.0009 µM (antagonist).

As a reminder, the Ki is the equilibrium dissociation constant of an inhibitor or competing ligand from its target. A word on the IC50: it is the concentration that gives 50% inhibition. Usually EC50 stands for the concentration that produces a half-maximal response. One may read the Cmax as the maximum level reached in the sampled fluid or tissue. One may read the bioavailability as the share of a dose that reaches the circulation, judged against a reference dose that is usually intravenous. As a reminder, the clearance is the volume of plasma or blood freed of the substance per unit of time. A word on the half-life: it is the time in which the quantity being followed falls by half.
